Results as given in patent US9993494B2, “Compositions and methods for treating fibrotic disease” (eFFECTOR Therapeutics, Inc., priority 2014, dated 2018).

Test system: normal human lung fibroblasts
Test: Ribosomal profiling: translational efficiency in TGFβ-treated fibroblasts
Format: cell-based
Procedure, shortened: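 Genome-wide RPF and total RNA libraries (ARTseq, RNA-Seq) were made from lysates of cycloheximide-treated, PBS-washed cells. After trimming and human-genome mapping, per-gene coding-region counts were compared between RPF and RNA for translational efficiency. Genes scoring low in either fraction were dropped.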

TGFβ was tested, and the “Log2 TE EEF1A1” value (ENSG00000156508, 5 replicates) was 1.851, the “change in translational profile of EEF1A1 caused by TGFβ” value (ENSG00000156508, Control vs. TGFβ) was “E (E = <1.5 to 2.5)” and the “Log2 TE NRG1” value (ENSG00000157168, 5 replicates) was 1.162. For the same substance, the “change in translational profile of NRG1 caused by TGFβ” value (ENSG00000157168, Control vs. TGFβ) was “D (D = <1.0 to 1.5)”, the “change in translational profile of ADAMTS4 caused by TGFβ” value (ENSG00000158859, Control vs. TGFβ) was “D (D = <1.0 to 1.5)” and the “Log2 TE RPL8” value (ENSG00000161016, 5 replicates) was 1.353. The “change in translational profile of RPL8 caused by TGFβ” value (ENSG00000161016, Control vs. TGFβ) was “E (E = <1.5 to 2.5)”, the “Log2 TE RPL26” value (ENSG00000161970, 5 replicates) was 1.655 and the “change in translational profile of RPL26 caused by TGFβ” value (ENSG00000161970, Control vs. TGFβ) was “E (E = <1.5 to 2.5)”. For the same substance, the “Log2 TE RPL29” value (ENSG00000162244, 5 replicates) was 1.589, the “change in translational profile of RPL29 caused by TGFβ” value (ENSG00000162244, Control vs. TGFβ) was “E (E = <1.5 to 2.5)” and the “change in translational profile of CAMK2N1 caused by TGFβ” value (ENSG00000162545, Control vs. TGFβ) was “C (C = <−1.0 to −1.5)”. For the same substance, the “Log2 TE NFIA” value (ENSG00000162599, 5 replicates) was −1.2934, the “Log2 TE ARHGAP25” value (ENSG00000163219, 5 replicates) was 1.166 and the “change in translational profile of IGFBP7 caused by TGFβ” value (ENSG00000163453, Control vs. TGFβ) was “E (E = <1.5 to 2.5)”. For the same substance, the “Log2 TE RPL22L1” value (ENSG00000163584, 5 replicates) was 1.012, the “change in translational profile of RPL22L1 caused by TGFβ” value (ENSG00000163584, Control vs. TGFβ) was “D (D = <1.0 to 1.5)” and the “Log2 TE PTX3” value (ENSG00000163661, 5 replicates) was −1.576. The “Log2 TE RPL9” value (ENSG00000163682, 5 replicates) was 1.613, the “change in translational profile of RPL9 caused by TGFβ” value (ENSG00000163682, Control vs. TGFβ) was “E (E = <1.5 to 2.5)” and the “Log2 TE TKT” value (ENSG00000163931, 5 replicates) was 1.142. The “Log2 TE GUCY1A3” value (ENSG00000164116, 5 replicates) was −1.932, the “Log2 TE RHOBTB3” value (ENSG00000164292, 5 replicates) was −1.529 and the “change in translational profile of RHOBTB3 caused by TGFβ” value (ENSG00000164292, Control vs. TGFβ) was “B (B = <−1.5 to −2.5)”. The “Log2 TE TLR3” value (ENSG00000164342, 5 replicates) was −1.371, the “Log2 TE RPS14” value (ENSG00000164587, 5 replicates) was 1.684 and the “change in translational profile of HCN1 caused by TGFβ” value (ENSG00000164588, Control vs. TGFβ) was “D (D = <1.0 to 1.5)”. For the same substance, the “Log2 TE WBSCR27” value (ENSG00000165171, 5 replicates) was 1.116, the “change in translational profile of RPL36AL caused by TGFβ” value (ENSG00000165502, Control vs. TGFβ) was “D (D = <1.0 to 1.5)” and the “Log2 TE RPL27A” value (ENSG00000166441, 5 replicates) was 2.09. The “change in translational profile of RPL27A caused by TGFβ” value (ENSG00000166441, Control vs. TGFβ) was “F (F = >2.5)”, the “change in translational profile of RP11-382A20.3.1 caused by TGFβ” value (ENSG00000166503, Control vs. TGFβ) was “C (C = <−1.0 to −1.5)” and the “change in translational profile of ANKDD1A caused by TGFβ” value (ENSG00000166839, Control vs. TGFβ) was “C (C = <−1.0 to −1.5)”. The “Log2 TE RPL13” value (ENSG00000167526, 5 replicates) was 1.465, the “change in translational profile of RPL13 caused by TGFβ” value (ENSG00000167526, Control vs. TGFβ) was “E (E = <1.5 to 2.5)” and the “Log2 TE EEF2” value (ENSG00000167658, 5 replicates) was 2.323. For the same substance, the “change in translational profile of EEF2 caused by TGFβ” value (ENSG00000167658, Control vs. TGFβ) was “F (F = >2.5)”, the “Log2 TE RPSA” value (ENSG00000168028, 5 replicates) was 1.359 and the “Log2 TE TET2” value (ENSG00000168769, 5 replicates) was 1.377. For the same substance, the “Log2 TE ZNF608” value (ENSG00000168916, 5 replicates) was −1.59, the “Log2 TE SLC25A6” value (ENSG00000169100, 5 replicates) was 1.909 and the “Log2 TE THBS3” value (ENSG00000169231, 5 replicates) was 1.188. The “Log2 TE CA5B” value (ENSG00000169239, 5 replicates) was −1.791, the “change in translational profile of CA5B caused by TGFβ” value (ENSG00000169239, Control vs. TGFβ) was “B (B = <−1.5 to −2.5)” and the “Log2 TE KIAA1024” value (ENSG00000169330, 5 replicates) was 2.216. The “change in translational profile of KIAA1024 caused by TGFβ” value (ENSG00000169330, Control vs. TGFβ) was “F (F = >2.5)”, the “Log2 TE CRTAP” value (ENSG00000170275, 5 replicates) was 1.022 and the “Log2 TE TMC7” value (ENSG00000170537, 5 replicates) was 1.745. For the same substance, the “Log2 TE MURC” value (ENSG00000170681, 5 replicates) was 3.678, the “change in translational profile of MURC caused by TGFβ” value (ENSG00000170681, Control vs. TGFβ) was “F (F = >2.5)” and the “change in translational profile of HTRA3 caused by TGFβ” value (ENSG00000170801, Control vs. TGFβ) was “C (C = <−1.0 to −1.5)”. The “Log2 TE RPS9” value (ENSG00000170889, 5 replicates) was 1.6139, the “Log2 TE PDGFD” value (ENSG00000170962, 5 replicates) was −1.029 and the “Log2 TE PDE7B” value (ENSG00000171408, 5 replicates) was −2.782. The “change in translational profile of PDE7B caused by TGFβ” value (ENSG00000171408, Control vs. TGFβ) was “A (A = <−2.5)”, the “Log2 TE ZNF581” value (ENSG00000171425, 5 replicates) was 1.45 and the “Log2 TE LPAR3” value (ENSG00000171517, 5 replicates) was −2.387. The “change in translational profile of LPAR3 caused by TGFβ” value (ENSG00000171517, Control vs. TGFβ) was “A (A = <−2.5)” and the “Log2 TE CTPS” value (ENSG00000171793, 5 replicates) was 1.08.
